# Reference: ChEMBL document CHEMBL1142913, “Novel synthesis of [1]-benzothiepino[5,4-b]pyridine-3-carbonitriles and their anti-inflammatory properties” (Bioorg Med Chem, 2007)
# Key:
# Rattus norvegicus [1] = assay: Antiinflammatory activity in Wistar Albino rat assessed as inhibition of carrageenan-induced paw oedema at 5 mg/kg, ip after 3 hrs; type: functional; conditions: route intraperitoneal
# Rattus norvegicus [2] = assay: Antiinflammatory activity against carrageenan-induced paw oedema in Wistar Albino rat assessed as mean swelling paw volume at 5 mg/kg, ip after 2 hrs; type: functional; conditions: route intraperitoneal
# Rattus norvegicus [3] = assay: Antiinflammatory activity against carrageenan-induced paw oedema in Wistar Albino rat assessed as mean swelling paw volume at 5 mg/kg, ip after 1 hr; type: functional; conditions: route intraperitoneal
# Rattus norvegicus [4] = assay: Antiinflammatory activity against carrageenan-induced paw oedema in Wistar Albino rat assessed as mean swelling paw volume at 5 mg/kg, ip after 3 hrs; type: functional; conditions: route intraperitoneal
# Rattus norvegicus [5] = assay: Antiinflammatory activity in Wistar Albino rat assessed as inhibition of carrageenan-induced paw oedema at 5 mg/kg, ip after 4 hrs; type: functional; conditions: route intraperitoneal
# Rattus norvegicus [6] = assay: Antiinflammatory activity against carrageenan-induced paw oedema in Wistar Albino rat assessed as mean swelling paw volume at 5 mg/kg, ip after 4 hrs; type: functional; conditions: route intraperitoneal
# Rattus norvegicus [7] = assay: Antiinflammatory activity in Wistar Albino rat assessed as inhibition of carrageenan-induced paw oedema at 5 mg/kg, ip after 1 hr; type: functional; conditions: route intraperitoneal
# Rattus norvegicus [8] = assay: Antiinflammatory activity in Wistar Albino rat assessed as inhibition of carrageenan-induced paw oedema at 5 mg/kg, ip after 2 hrs; type: functional; conditions: route intraperitoneal
# Rattus norvegicus [9] = assay: Antiinflammatory activity in Wistar Albino rat assessed as inhibition of carrageenan-induced paw oedema at 50 mg/kg, ip after 3 hrs; type: functional; conditions: route intraperitoneal
# Rattus norvegicus [10] = assay: Antiinflammatory activity against carrageenan-induced paw oedema in Wistar Albino rat assessed as mean swelling paw volume at 50 mg/kg, ip after 4 hrs; type: functional; conditions: route intraperitoneal
# Rattus norvegicus [11] = assay: Antiinflammatory activity in Wistar Albino rat assessed as inhibition of carrageenan-induced paw oedema at 50 mg/kg, ip after 4 hrs; type: functional; conditions: route intraperitoneal
# Rattus norvegicus [12] = assay: Antiinflammatory activity against carrageenan-induced paw oedema in Wistar Albino rat assessed as mean swelling paw volume at 50 mg/kg, ip after 1 hr; type: functional; conditions: route intraperitoneal
# Rattus norvegicus [13] = assay: Antiinflammatory activity in Wistar Albino rat assessed as inhibition of carrageenan-induced paw oedema at 50 mg/kg, ip after 1 hr; type: functional; conditions: route intraperitoneal
# Rattus norvegicus [14] = assay: Antiinflammatory activity against carrageenan-induced paw oedema in Wistar Albino rat assessed as mean swelling paw volume at 50 mg/kg, ip after 2 hrs; type: functional; conditions: route intraperitoneal
# Rattus norvegicus [15] = assay: Antiinflammatory activity against carrageenan-induced paw oedema in Wistar Albino rat assessed as mean swelling paw volume at 50 mg/kg, ip after 3 hrs; type: functional; conditions: route intraperitoneal
# Rattus norvegicus [16] = assay: Antiinflammatory activity in Wistar Albino rat assessed as inhibition of carrageenan-induced paw oedema at 50 mg/kg, ip after 2 hrs; type: functional; conditions: route intraperitoneal
# Mus musculus = assay: Toxicity in intraperitoneally dosed Albino mouse after 24 hrs; type: organism-based; conditions: in vivo, ip
SMILES,inhibition in vivo at 5 mg/kg (Rattus norvegicus [1]) [%],Activity (Rattus norvegicus [2]) [mL],Activity (Rattus norvegicus [3]) [mL],Activity (Rattus norvegicus [4]) [mL],inhibition in vivo at 5 mg/kg (Rattus norvegicus [5]) [%],Activity (Rattus norvegicus [6]) [mL],inhibition in vivo at 5 mg/kg (Rattus norvegicus [7]) [%],inhibition in vivo at 5 mg/kg (Rattus norvegicus [8]) [%],inhibition in vivo at 50 mg/kg (Rattus norvegicus [9]) [%],Activity (Rattus norvegicus [10]) [mL],inhibition in vivo at 50 mg/kg (Rattus norvegicus [11]) [%],Activity (Rattus norvegicus [12]) [mL],inhibition in vivo at 50 mg/kg (Rattus norvegicus [13]) [%],Activity (Rattus norvegicus [14]) [mL],Activity (Rattus norvegicus [15]) [mL],inhibition in vivo at 50 mg/kg (Rattus norvegicus [16]) [%],Activity (Mus musculus)
COc1ccc2c(c1)c(CC(=O)O)c(C)n2C(=O)c1ccc(Cl)cc1 [INDOMETHACIN],66.4,0.195,0.175,0.46,82.6,0.278,71.1,82.6,–,–,–,–,–,–,–,–,–
COc1nc2c(c(-c3cccs3)c1C#N)CCSc1ccccc1-2,–,–,–,–,–,–,–,–,56.1,0.695,56.6,0.27,55.4,0.447,0.6,60.1,–
C1COCCN1.COc1ccc(-c2c(C#N)c(S)[nH]c(=S)c2C#N)cc1.O,–,–,–,–,–,–,–,–,67.8,0.536,66.5,0.42,30.6,0.498,0.44,55.5,–
COc1ccc(-c2c(C#N)c(OC)nc3c2CCSc2ccccc2-3)cc1,–,–,–,–,–,–,–,–,87,0.238,85.1,0.25,58.7,0.203,0.178,81.9,Non-toxic
COc1nc2c(c(-c3ccc(Cl)cc3)c1C#N)CCSc1ccccc1-2,–,–,–,–,–,–,–,–,79.8,0.396,75.3,0.223,63.1,0.283,0.277,74.7,–
COc1nc2c(c(-c3ccccc3)c1C#N)CCSc1ccccc1-2,–,–,–,–,–,–,–,–,59.2,0.305,80.9,0.278,54,0.437,0.558,61,–
N#Cc1c(-c2ccc(Br)cc2)c2c([nH]c1=S)-c1ccccc1SCC2,–,–,–,–,–,–,–,–,63.8,0.485,69.7,0.375,38,0.485,0.495,56.7,–
COc1ccc(-c2c3c([nH]c(=S)c2C#N)-c2ccccc2SCC3)cc1,–,–,–,–,–,–,–,–,63.5,0.7,56.3,0.275,54.5,0.355,0.5,68.3,–
C1CCNCC1.COc1ccc(-c2c(C#N)c(S)[nH]c(=S)c2C#N)cc1.O,–,–,–,–,–,–,–,–,57,0.658,58.9,0.548,9.4,0.594,0.588,47,–
CCOc1nc2c(c(-c3ccc(OC)cc3)c1C#N)CCSc1ccccc1-2,–,–,–,–,–,–,–,–,90.6,0.2,87.5,0.23,62,0.23,0.128,79.5,Non-toxic
COc1nc2c(c(-c3ccco3)c1C#N)CCSc1ccccc1-2,–,–,–,–,–,–,–,–,58.2,0.508,68.3,0.124,79.5,0.548,0.572,51.1,–
CCOc1nc2c(c(-c3ccc(Cl)cc3)c1C#N)CCSc1ccccc1-2,–,–,–,–,–,–,–,–,88.5,0.212,86.8,0.113,81.3,0.138,0.158,87.7,Non-toxic
